In patent publication US20070202079A1, “Therapeutic compositions and methods useful in modulating protein tyrosine phosphatases” (priority 2006, published 2007):
Where “and” joins values, the source holds several entries; their conditions need not be identical. Identical values can stand only once. Entries after “also recorded” stand apart in the source; their conditions may differ.

Legend:
NB4 cells [1] = assay: NB4 differentiation (NBT reduction, CD11b); type: cell-based, human
Description: (§1) Differentiation of AML cell lines was assessed by their ability to produce superoxide as measured by reduction of NBT to formazan and by analysis of expression of CD11b surface marker by flow cytometry. For NBT reduction, each cell suspension was mixed with an equal volume of solution containing 1 mg/ml of NBT (Sigma) and 2.5 μg/ml of TPA for 30 minutes at 37° C. After incubation, cells containing the purple formazan deposits and cells devoid of NBT-reducing activity (white cells) in each sample were determined by counting 200 cells under microscope. Data is expressed as a percentage based on the following ratio: purple cells/purple+white cells. For analysis of cell surface antigens, cells were exposed to phycoerythrin (PE)-conjugated murine anti-human CD11b (DAKO Corp., Carpinteria, Calif.). Analysis of fluorescence was performed on a FACScan flow cytometer (Beckton Dickinson, Mountain View, Calif.).

U937 cells = assay: U937 differentiation (NBT reduction); type: cell-based, human; conditions: day 6
Description: as §1

HL-60 cells = assay: HL-60 differentiation (NBT reduction); type: cell-based, human; conditions: day 6
Description: as §1

[2] = test system: Jak2/Stat5 tyrosine phosphorylation in Baf3 cells; assay: cellular protein tyrosine phosphorylation in Baf3 cells, Western blotting; type: cell-based, murine
Description: For induction of cellular protein phosphorylation by sodium stibogluconate or pervanadate, Baf3 cells were incubated in 0.1% FCS-RPMI 1640 medium at 37° C. for 16 hours. The cells were then washed twice in RPMI 1640 medium and incubated with sodium stibogluconate or pervanandate (0.1 mM) for various times prior to termination by lysing cells in cold lysis buffer (50 mM Tris, pH 7.4; 150 mM NaCl; 0.2 mM Na3VO4; 20 mm NaF; 1% Nonidet P-40; 2 mM PMSF; 20 μg/ml of Aprotinin and 1 mM of sodium molybdic acid). To determine the effect of sodium stibogluconate or potassium antimonyl tartrate on IL-3-induced Jak/Stat phosphorylation, Baf3 cells were deprived of the growth factor for 16 hours in 0.1% FCS RPMI 1640 medium and then incubated with or without sodium stibogluconate or potassium antimonyl tartrate for 10 minutes. IL-3 was next added to the cell suspension and incubated for various times. The Cells were then harvested and lysed in cold lysis buffer at 4° C. for 45 minutes. Total cell lysates (TCL) were separated in SDS-PAGE gels, blotted onto nitrocellulose membrane (Schleicher & Schuell), probed with specific antibodies and detected using an enhanced chemiluminescence kit (ECL, Amersham, Arlington Heights, Ill.).

PTP1B = target: T1, PTP1B (Homo sapiens, UniProt P18031); assay: in vitro PTPase assay, GST/PTP1B; type: biochemical; conditions: 1-1,000 μg/ml
T1 construct: purchased Upstate Biotechnology Inc. (Lake Placid, N.Y.)
Description: In vitro PTPase activities were measured using the commercial protein tyrosine phosphatase assay kit (Upstate Biotechnology, Inc. (“UBI”)) following established procedure known to one of skill in the art. This assay measures the in vitro dephosphorylation of a synthetic phosphotyrosine peptide of the sequence Arg-Arg-Leu-Ile-Glu-Asp-Ala-Gle-T- -yr-Ala-Ala-Arg-Gly, wherein the tyrosine is phosphorylated (SEQ ID NO: 3). Briefly, 0.01 μg of GST/PTPase fusion proteins was incubated in 50 μl of Tris buffer (10 mM Tris, pH 7.4) containing different concentrations of inhibitors or chemicals (0-1,000 μg/ml) at 22° C. for 10 minutes, followed by addition of 0.2 mM of the phosphotyrosine peptide and incubation at 22° C. for 18 hours. 100 μl of Malachite Green solution was added and incubated for 5 minutes, and the absorbance at 660 nm was measured after 5 minutes.
In vitro PTPase assays were used to determine the effects of levamisole (Sigma), pentamidine (American Pharmaceutical Partners, Inc.), and ketoconazole (Sigma) on recombinant PTPases, following established procedures (Pathak et al., J. Immunol. 167, 3391 (2001); Pathak et al., Leukemia 16, 2285 (2002), Yi et al., J. Immunol. 169, 5978 (2002)) using a synthetic phosphotyrosine peptide or DiFMUP as the substrate as detailed above in section I.A.2.

SHP-1 = target: T2, SHP-1 (Mus musculus, UniProt P29351); assay: in vitro PTPase assay, GST/SHP-1; type: biochemical; conditions: 1-1,000 μg/ml
T2 construct: made in house
Description: In vitro PTPase activities were measured using the commercial protein tyrosine phosphatase assay kit (Upstate Biotechnology, Inc. (“UBI”)) following established procedure known to one of skill in the art. […] Briefly, 0.01 μg of GST/PTPase fusion proteins was incubated in 50 μl of Tris buffer (10 mM Tris, pH 7.4) containing different concentrations of inhibitors or chemicals (0-1,000 μg/ml) at 22° C. for 10 minutes, followed by addition of 0.2 mM of the phosphotyrosine peptide and incubation at 22° […] 100 μl of Malachite Green solution was added and incubated for 5 minutes, and the absorbance at 660 nm was measured after 5 minutes.
To assess the reversibility of inhibition of SHP-1 by PTPase inhibitors, GST/SHP-1 fusion protein bound on glutathione beads were pre-incubated in cold Tris buffer or Tris buffer containing the PTPase inhibitors at 4° C. for 30 minutes. The beads were then either subjected to in vitro PTPase assays or washed 3 times in Tris buffer then subjected to in vitro PTPase assays.
Briefly, individual PTPases (0.1 μg/reaction) in 50 μL of PTPase buffer (50 mM Tris, pH 7.4) were incubated at 22° C. for 10 minutes or as indicated in the absence or presence of inhibitory compounds. Substrates (0.2 mM phosphotyrosine peptide) were then added and allowed to react at 22° C. for 18 hrs. PTPase activity of individual reactions was measured by adding 100 μL of malachite green solution (UBI) and then quantifying the amounts of free phosphate cleaved by the PTPase from the peptide substrate by spectrometry (OD660 nm). […] Relative PTPase activities were calculated based on the formula: (PTPase activity in the presence of an inhibitory compound/PTPase activity in the absence of the compound)× 100%. To assess the reversibility of PTPase inhibition, GST fusion proteins of the PTPases bound on glutathione beads (Pharmacia) were pre-incubated with cold Tris buffer (50 mM Tris, pH 7.0) or Tris buffer containing the inhibitor at 4° C. for 30 minutes. The beads were then washed three times in cold Tris buffer or not washed prior to subjecting to in vitro PTPase assays.

Baf3 cells = assay: Baf3 cell proliferation assay; type: cell-based, murine
Description: The murine hematopoietic cell line Baf3 was maintained in RPMI 1640 medium supplemented with 10% fetal calf serum (FCS) and murine IL-3 (20 units/ml) as described previously in Damen et al., J. Biol. Chem. 270, 23402 (1995). Human myeloid cell line TF-1 was maintained in RPMI 1640 supplemented with 10% FCS and 40 ng/ml of recombinant human GM-CSF as described previously in Thomassen et al., Clin. Immunol. 95, 85 (2000). For cell proliferation assays, cells were washed in 10% FCS medium twice, resuspended in 10% FCS medium, incubated at 37° C. for 16 hours, and then cultured at 37° C. in 10% FCS medium containing various amounts of cytokines, sodium stibogluconate, or potassium antimonyl tartrate for 3-6 days as indicated. The cell numbers in proliferation assays were determined by an MTT assay or by microscopic cell counting as indicated.

[3] = test system: tumor-infiltrating and spleen immune cells (F4/80+, CD4+, CD8+); assay: immunohistochemistry of Renca tumors and spleen; type: in vivo, Balb/c mice; conditions: Renca tumors, end of treatment
Description: Major internal organs and Renca tumors harvested from mice were fixed in 10% formalin or snap frozen in liquid nitrogen. H & E-stained tissue sections of the fixed samples were prepared and evaluated by microscopy as described previously (Yi, T., M. K. Pathak, D. J. Lindner, M. E. Ketterer, C. Farver, and E. C. Borden. 2002. Anticancer activity of sodium stibogluconate in synergy with IFNs. J Immunol 169:5978). Preparation of frozen tissue sections and immunohistochemistry were performed following established procedures (Joliat, M. J., P. A. Lang, B. L. Lyons, L. Burzenski, M. A. Lynes, T. Yi, J. P. Sundberg, and L. D. Shultz. 2002. Absence of CD5 dramatically reduces progression of pulmonary inflammatory lesions in SHP-1 protein-tyrosine phosphatase-deficient ‘viable motheaten’ mice. J Autoimmun 18:105). The antibodies used for immunohistochemistry were anti-CD4 (rat mAb, clone GK1.5, BD Biosciences, Franklin Lakes, N.J.), anti-CD8 (rat mAb, clone 53-6.7.5, BD Biosciences, Franklin Lakes, N.J.), anti-F4/80 (rat mAb, clone A3-1, Serotec, Oxford, UK) and anti-Asialo GM1 (rabbit polyclonal, Cedarlane, Hornby, Canada). […] Tissue sections of 2 mice/group were evaluated. The number of immune cells was semi-quantified based on the following scheme: […], 0-1 positive cells/40×field; +, 2-5 positive cells/40×field; ++, 6-10 positive cells/40×field, etc.

Renca tumors = Renca tumors in Balb/c mice; type: in vivo; conditions: two weeks; SSG 12 mg/daily i.m., i.p.
Description: Balb/c and athymic nude Balb/c mice (10 weeks old, female, Taconic Farms, Germantown, N.Y.) were inoculated (s.c.) at the flanks with Renca cells (10^6 cells/site). Four days post-inoculation, the mice were subject to no treatment (Control) or treatment with IL-2 ([…]/daily for 5 days, i.p.), SSG (12 mg/daily, i.m. at hip regions) or the combination of the two agents for two weeks. […] The dose of SSG was similar to the effective daily dose of the drug for the treatment of murine leishmaniasis (Murray, H. W., J. D. Berman, and S. D. Wright. 1988. Immunochemotherapy for intracellular Leishmania donovani infection: gamma interferon plus pentavalent antimony. J Infect Dis 157:973). Tumor volume was measured during the study period and calculated using the formula for a prolate spheroid (V=4/3×a2b) (Lindner, D. J., E. C. Borden, and D. V. Kalvakolanu. 1997. Synergistic antitumor effects of a combination of interferons and retinoic acid on human tumor cells in vitro and in vivo. Clin Cancer Res 3:931). Student's t test was used for assessing the significance of tumor volume differences among differential treatment groups. Mouse viability (daily) and body weights (weekly) were also recorded during the study period. At the end of the study, Renca tumors and major internal organs (heart, kidney, liver, lung and spleen) were harvested for histology and immunohistochemistry analysis.

NB4 cells [4] = assay: NB4 growth, cell cycle and Annexin V; type: cell-based, human; conditions: sodium stibogluconate 250 μg/ml or ATRA 1 μM, 3 days
Description: The NB4 cell line (Lanotte et al., Blood 77, 1080 (1991)) was a gift from Dr. Dan Lindner of the Cleveland Clinic Foundation. […] and U937 cell lines were purchased from American Type Culture Collection (Rockville, Md.). These human […] cell lines were maintained in RPMI 1640 medium supplemented with 10% fetal calf serum (FCS). For cell proliferation assays, cells were cultured at 37° C. in 10% FCS medium containing various amounts of sodium stibogluconate for 6 days. The cell numbers in the cultures were determined by an MTT assay as described previously in Mosmann, J. Immunol. Methods 65, 55 (1983).
The cell cycle was analyzed by flow cytometry after 3 days of culture of NB4 cells in the absence or presence of sodium stibogluconate (250 μg/ml) or ATRA (1 μM). Briefly, the cells were fixed in cold ethanol and incubated for 30 minutes at 4° C. in the dark with a solution of […] propidium iodide, 1 mg/ml RNase and 0.1% NP-40. Analysis was performed immediately after staining using the CELLFIT program (Becton Dickinson, Mountain View, Calif.).
Annexin V staining of exposed membrane phospholipid phosphatidylserine (PS) was done using the Annexin V assay kit (Pharmingen, San Diego, Calif.). Briefly, NB4 cells were cultured in the 10% FCS RPMI 1640 medium in the absence or presence of sodium stibogluconate (250 μg/ml) or ATRA (1 μM) for 3 days. Cells were then washed in PBS twice and stained in binding buffer (10 mM Hepes, pH 7.4; 140 mM NaCl; 2.5 mM CaCl2) containing Annexin V-FITC and propidium iodide for 15 min. The reaction was stopped by adding 10 volumes of binding buffer and analyzed by FACS (Becton Dickinson Facsvantage).

[5] = sodium stibogluconate 400 μg/ml, GM-CSF 25 ng/ml, ATRA

T1 sequence (P18031 whole entry, species assumed): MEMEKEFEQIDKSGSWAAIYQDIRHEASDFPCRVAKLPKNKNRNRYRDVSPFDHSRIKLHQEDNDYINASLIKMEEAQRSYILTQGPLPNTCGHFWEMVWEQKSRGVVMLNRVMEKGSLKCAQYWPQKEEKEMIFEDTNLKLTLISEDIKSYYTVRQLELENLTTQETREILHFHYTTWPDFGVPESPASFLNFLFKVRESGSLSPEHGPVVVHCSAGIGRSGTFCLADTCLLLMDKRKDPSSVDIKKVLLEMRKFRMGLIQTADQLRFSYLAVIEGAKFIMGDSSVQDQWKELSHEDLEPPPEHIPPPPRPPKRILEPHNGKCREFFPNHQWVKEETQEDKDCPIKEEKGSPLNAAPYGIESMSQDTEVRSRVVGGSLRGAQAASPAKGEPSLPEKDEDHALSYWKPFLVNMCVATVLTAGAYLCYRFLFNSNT
T2 sequence (P29351 whole entry): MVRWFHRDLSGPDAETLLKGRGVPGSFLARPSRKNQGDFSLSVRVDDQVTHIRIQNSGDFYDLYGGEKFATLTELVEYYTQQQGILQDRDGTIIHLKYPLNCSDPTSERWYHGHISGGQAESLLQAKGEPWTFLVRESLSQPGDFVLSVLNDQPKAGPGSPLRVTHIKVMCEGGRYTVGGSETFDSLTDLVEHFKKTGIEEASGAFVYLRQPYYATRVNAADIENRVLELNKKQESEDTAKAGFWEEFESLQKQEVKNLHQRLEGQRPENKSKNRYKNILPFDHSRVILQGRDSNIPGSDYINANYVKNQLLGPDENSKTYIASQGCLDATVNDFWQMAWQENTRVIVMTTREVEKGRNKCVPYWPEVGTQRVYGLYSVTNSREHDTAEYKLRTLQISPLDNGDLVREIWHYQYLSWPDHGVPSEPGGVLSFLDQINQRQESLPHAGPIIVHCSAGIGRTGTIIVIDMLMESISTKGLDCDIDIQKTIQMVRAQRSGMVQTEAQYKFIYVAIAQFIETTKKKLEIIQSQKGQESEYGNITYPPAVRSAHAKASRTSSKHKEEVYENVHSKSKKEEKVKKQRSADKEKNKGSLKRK

## GM-CSF: recombinant human granulocyte/macrophage colony stimulating factor
NB4 cells [1]; GM-CSF alone
  effect on NB-4 cell differentiation: no detectable effect
U937 cells; GM-CSF alone 25 ng/ml
  maximal increase of NBT-positive U937 cells: 8-10%
HL-60 cells; GM-CSF alone 25 ng/ml
  maximal increase of NBT-positive HL-60 cells: 8-10%

## O.O.O.O=C([O-])[C@H]([O-])[C@@H]([O-])C(=O)[O-].O=C([O-])[C@H]([O-])[C@@H]([O-])C(=O)[O-].[K+].[K+].[Sb+3].[Sb+3] [potassium antimonyl tartrate]
[2]
  IL-3-induced Stat5 phosphorylation: failed to enhance IL-3-induced Stat5 phosphorylation
PTP1B
  inhibition of PTP1B: no detectable inhibition
SHP-1
  inhibition of SHP-1: no detectable inhibition
Baf3 cells
  IL-3-induced proliferation of Baf3 cells: failed to enhance
  toxicity against Baf3 cells: marked toxicity

## IL-2: recombinant IL-2 (Proleukin, Chiron)
[3]
  increase of tumor-infiltrating Mφ (F4/80+): comparable levels
Renca tumors
  Renca tumor growth inhibition: little effects; also recorded: failed to inhibit Renca tumor growth

## CC1=C(/C=C/C(C)=C/C=C/C(C)=C/C(=O)O)C(C)(C)CCC1 [ATRA, All-trans-retinoic acid]
NB4 cells [1]; ATRA
  NB4 differentiation by short exposure versus long term exposure: modest
NB4 cells [4]
  cell cycle of NB4 cells: arrested at GI phase
U937 cells; [5]
  NBT-positive (differentiated) U937 cells: 72% and 73%
HL-60 cells; [5]
  NBT-positive (differentiated) HL-60 cells: 90%
